Measurements published in a melting point compilation (Tetko et al.; mined from patent text by program, amines drawn as free bases though some values may be those of a salt).

SMILES	melting point [°C]
CCCCOC(=O)c1cc([N+](=O)[O-])c(Cl)c(S(N)(=O)=O)c1	140 to 141
CC(C)Cc1ccc(C(C)COC(=O)c2cc(O)c3c(c2)C(=O)c2cccc(O)c2C3=O)cc1 (stereo unspecified)	115
O=C1NC(=NC2CCCC2)C(c2ccc3[nH]ccc3c2)N1c1ccc2[nH]cnc2c1 (stereo unspecified)	210
COCCc1nc2c(N)nc3cc(Br)ccc3c2s1	172 to 175
CCCOc1cc(/C=C/C(=O)OCC)n(Cc2ccccc2)n1	56 to 57
O=C(Nc1ccccc1Sc1c(Cl)cncc1Cl)N[C@@H](Cc1ccc(NC(=O)c2c(Cl)cncc2Cl)cc1)C(=O)O	211
CC(C)c1nc(-c2ccc(F)cc2)c(-c2ccc(F)cc2)n1/C=C/[C@@H](O)C[C@@H](O)CC(=O)O	172 to 173
CCCCc1ccc(C(=O)NCc2c[nH]c(=S)n2[C@H]2CCc3c(F)cc(F)cc3C2)nc1	99 to 104
COC(=O)NC(CCSC)C(N)=O (racemic)	93 to 94
O=P(O)(O)CCCCCCC(F)(F)C(F)(F)C(F)(F)C(F)(F)F	107 to 108
COC(=O)c1cccc2c(SC(F)(F)F)c(OC)ccc12	93 to 94
O=C1CC(=O)CC(CC2CCOCC2)C1	129 to 130
C=Cn1cccc(O)c1=S	84
Clc1ccc2nc(Cl)nc(-c3ccccc3Cl)c2c1	175 to 176
NC(=O)c1[nH]cnc1OC(=O)c1ccc(Cl)cc1	220
COc1cc2ncnc(N3CCN(C(=O)Nc4ccc(-n5cccc5)nc4)CC3)c2cc1OC	252 to 254
Cc1c(O)ncnc1C(F)F	166 to 167
CCNc1ncc2ccc(=O)n(C)c2n1	194 to 195
COc1ccc2c(c1)c(SC(C)(C)C)c(CC(C)(C)C(=O)O)n2Cc1ccc(Cl)cc1	190 to 191
CC(C)=CCOC(C)C1CC=C2C3=C(CCC21C)C1(C)CCC(O)C(C)(C)C1CC3 (stereo unspecified)	117 to 120
CCn1nc(C)c(-c2ccc3c(c2)NC(=O)CO3)c1-c1ccc(F)cc1	161
COc1ccc(Sc2ccnc(Nc3ccc(OCCN(C)C)cc3)n2)cc1	112 to 113
CC1CCCC1(O)c1ccc(C#N)c2ccccc12 (stereo unspecified)	121 to 122
CC1(CN2CCC(S(=O)c3ccc(OC(F)(F)F)cc3)CC2)Cn2cc([N+](=O)[O-])nc2O1 (stereo unspecified)	107 to 109

SMILES	melting point [°C]
CCOC(=O)c1ccc(OCc2ccccc2)c(OC)c1	72 to 74
CCC(=O)Nc1c(C)c2c(c(Cc3ccc(C(C)C)cc3)c1C)OCC2	177 to 178
COc1ccc2c(c1)C(C(=O)N(Cc1ccc(NCc3ccccc3)cc1)c1ccc(C(C)C)cc1)CCC2 (stereo unspecified)	135 to 138
Oc1ccc(-c2cn(-c3ccncc3)c(-c3ccc(F)cc3)n2)cc1	230 to 231
CCCOc1ccc(/C=C/c2nc3c([nH]2)c(=O)n(CC)c(=O)n3CC)cc1	> 270
Nc1nc(F)c(OC(F)F)c(Cl)n1	77 to 80
CCOC(=O)C1=C(C)NC(C)=C(C(=O)OC2CCCCC2)C1c1cccc([N+](=O)[O-])c1 (stereo unspecified)	135
Cc1ccc(C(=O)c2cccc3c2CCC3C(=O)O)cc1 (stereo unspecified)	128 to 131
CCOC(=O)C(C)(C)n1c(=O)[nH]c2cc(Cl)ccc2c1=O	201 to 202
O=C(CCS)NC1CCCCC1	73.5 to 75.5
O=C(NCc1ccncc1)c1ccnc(N2CCN(CC3CC3)C2=O)c1	160 to 162
N#CC(c1ccccc1)(c1ccccc1)C1CCN(C(=O)Oc2ccccc2)C1 (stereo unspecified)	154 to 155
COc1ccc(-c2cc(F)c(F)cc2-c2ccc(S(C)(=O)=O)cc2)cc1C	160 to 162
COc1ccccc1C(=O)COc1cccc(NC(=O)c2ccccn2)c1	136 to 137
O=C1c2ccccc2C(=O)N1CC1=Nc2ccccc2N(Cc2ccccc2)C(=O)C1	186
O=S(=O)(NCCCCCOc1ccc(-n2ccnc2)cc1)c1ccc(Br)cc1	137 to 138
CC(C)(C)Nc1nc2ccc(Cl)cc2c2nc(-c3ccco3)nn12	> 330
COCCn1cc2c(C3C(=O)Nc4ccc(Br)cc43)nc(NCCC3CCCNC3)nc2n1 (stereo unspecified)	270 to 273
COc1ccc(C2CC(c3ccccc3OC)=NN2c2ccc(C(=O)O)cc2)cc1 (stereo unspecified)	243
O=C1c2ccccc2C(O)(c2ccccc2)N1CCc1ccccc1F (stereo unspecified)	208
C#CCOc1ccc2c(C)cc(=O)oc2c1C(=O)C=Cc1cccc(OC)c1	154 to 156
Cc1ccc(C2C(=O)CCC2=O)c(C)c1	198 to 200
COC(=O)c1cccc(CNC(=O)OC(C)(C)C)c1O	95 to 96
CN1C(C)(C(=O)OC(C)(C)C)COS1(=O)=O (stereo unspecified)	54 to 55

SMILES	melting point [°C]
CCc1c(C(=O)OC(C)C)ncc2[nH]c3ccc4ncc(C)nc4c3c12	215 to 216
CNC(=O)c1ccccc1Nc1nc(Nc2cc3c(cc2OC)CCN(CC(=O)N(C)C)CC3)ncc1Cl	83 to 89
O=C(Cl)c1ccc2cc(C(=O)Cl)ccc2c1	186
Nc1ccc(C=C2SC(=O)NC2=O)cc1	265 to 270
NC(=S)/C=C/c1cc([N+](=O)[O-])ccc1Cl	236 to 238
O=C1N=CC(OCc2ccccc2)(C(F)(F)F)c2cc(Cl)ccc2N1 (stereo unspecified)	177 to 178
C=C1CC2C(CCC3(C)C2CCC3(OC)C(=O)COC(C)=O)C2(C)CCC(=O)C=C12 (stereo unspecified)	142 to 143
CC(C)(O)Cn1c(CO)nc2c(N)nc3cc(OCc4cscn4)ccc3c21	260 to 262
CCOC(=O)c1nn(-c2ccc(Br)cc2)c(=O)c2c(N)scc12	198 to 200
COC1(OC)CN(c2cc3c(cc2F)c(=O)c(C(=O)O)cn3-c2ccc(F)cc2F)CC1C (stereo unspecified)	193 to 194
CC(C)(C)OC(=O)N[C@@H]1C(=O)N(OCc2ccccc2)C1(C)C	121 to 122
NC(=O)c1ccc2nc3ccsc3c(=O)n2c1	319 to 320
CC(C)(O)Cc1cccc2ccccc12	47 to 48
CSc1ccc(-c2cn3c(c2-c2ccccc2)CCC3)cc1	112
Cc1ccc(CC(CNC(=O)C(C)c2ccc(NS(C)(=O)=O)cc2)COC(=O)C(C)(C)C)cc1C (stereo unspecified)	112 to 115
CCOP(=O)(CC(=O)Nc1cc2c(Nc3ccc(Br)c(Br)c3)ncnc2cn1)OCC	120 to 124
Cc1cc(C)nc(-n2nc(C)nc2N)n1	237
O=C(OC1CCCCC1)c1ncn2c1[C@@H]1CCCN1C(=O)c1c-2cccc1C(F)(F)F	193 to 194
COC(=O)c1cc(-c2ccc3c(c2)c2cc(-c4ccc(Cl)cc4Cl)c(=O)n(C)c2n3C)[nH]n1	290 to 292
COc1ccc(-n2cc(CCCO)c(C(C)C)n2)nn1	122 to 123
CCCCCCCCC(SCCCCCC)C(=O)Nc1c(Cl)cc(NC(C)=O)c2ncc(C)cc12 (stereo unspecified)	140 to 141
N#Cc1c2n(c(=O)n1-c1cc(O)c(Cl)cc1F)CCCC2	204 to 206
CC(C)Oc1cc(-c2cn(C)c(C(F)(F)F)cc2=O)c(F)cc1Cl	150 to 151
